Results: ChEMBL document CHEMBL1149855, “Dihydrobenzo[c]phenanthridine alkaloids from stem bark of Zanthoxylum nitidum” (J Nat Prod, 2008)
Active and inactive are the calls of the source.

Experiments:
Format in all cases: functional, cell-based
MCF7 = assay: Cytotoxicity against human MCF7 cells up to 29.2 ug/mL after 72 hrs by MTS reduction assay
NCI-H460 = assay: Cytotoxicity against human NCI-H460 cells up to 29.2 ug/mL after 72 hrs by MTS reduction assay
SF-268 = assay: Cytotoxicity against human SF268 cells up to 29.2 ug/mL after 72 hrs by MTS reduction assay

Measured: Activity

COc1ccc2c(c1OC)[C@@H](CC1=C[C@@H]3[C@@H](CC1)[C@](C)(OC)CC[C@H]3C(C)C)N(C)c1c-2ccc2cc3c(cc12)OCO3
inactive: MCF7 | NCI-H460 | SF-268

COc1ccc2c(c1OC)[C@@H](CC1=C[C@H]3[C@H](C(C)C)CC[C@](C)(OC)[C@H]3CC1)N(C)c1c-2ccc2cc3c(cc12)OCO3
inactive: MCF7 | NCI-H460 | SF-268

COc1ccc2c(c1OC)[C@@H](CC1=C[C@@H]3[C@@H](CC1)[C@@](C)(OC)CC[C@H]3C(C)C)N(C)c1c-2ccc2cc3c(cc12)OCO3
inactive: MCF7 | NCI-H460 | SF-268

COc1ccc2c(c1OC)[C@H](CC1=C[C@H]3[C@H](C(C)C)CC[C@](C)(OC)[C@H]3CC1)N(C)c1c-2ccc2cc3c(cc12)OCO3
inactive: MCF7 | NCI-H460 | SF-268

COc1ccc2c(c1OC)[C@H](CC1=C[C@@H]3[C@@H](CC1)[C@](C)(OC)CC[C@H]3C(C)C)N(C)c1c-2ccc2cc3c(cc12)OCO3
inactive: MCF7 | NCI-H460 | SF-268
